Like-named read-outs stand apart in the source and are kept apart here.
How the values were obtained:
pSTAT6 = target: T1, pSTAT6 (Homo sapiens, UniProt P42226); experiment: MSD-pSTAT-PBMC Assay, pSTAT6 (IL-4 stimulated PBMC); format: cell-based
T1 construct: pY641-STAT6 MSD read-out
T1 sequence (P42226 1-847): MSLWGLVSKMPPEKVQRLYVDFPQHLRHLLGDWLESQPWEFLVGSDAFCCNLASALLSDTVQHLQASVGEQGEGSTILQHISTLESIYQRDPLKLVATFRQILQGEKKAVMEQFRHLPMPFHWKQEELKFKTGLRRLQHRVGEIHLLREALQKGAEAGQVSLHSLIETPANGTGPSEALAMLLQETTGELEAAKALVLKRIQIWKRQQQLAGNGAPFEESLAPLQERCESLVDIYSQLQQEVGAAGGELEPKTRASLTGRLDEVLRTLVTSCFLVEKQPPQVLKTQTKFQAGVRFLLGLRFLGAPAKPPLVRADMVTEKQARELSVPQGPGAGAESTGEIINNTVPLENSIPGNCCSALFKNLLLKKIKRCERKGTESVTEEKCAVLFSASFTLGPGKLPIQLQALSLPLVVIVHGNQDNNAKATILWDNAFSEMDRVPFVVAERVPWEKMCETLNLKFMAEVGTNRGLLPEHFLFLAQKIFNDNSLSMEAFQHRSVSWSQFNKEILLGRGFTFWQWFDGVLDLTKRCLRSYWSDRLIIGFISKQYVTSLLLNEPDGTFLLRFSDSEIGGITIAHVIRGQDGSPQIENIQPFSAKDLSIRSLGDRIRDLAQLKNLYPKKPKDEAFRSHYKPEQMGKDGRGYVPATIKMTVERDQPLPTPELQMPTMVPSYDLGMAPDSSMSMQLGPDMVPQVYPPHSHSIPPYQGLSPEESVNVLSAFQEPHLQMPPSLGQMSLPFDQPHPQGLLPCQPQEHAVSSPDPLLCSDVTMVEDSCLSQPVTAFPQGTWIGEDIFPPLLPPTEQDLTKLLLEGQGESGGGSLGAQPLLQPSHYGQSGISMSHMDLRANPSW
How it was run: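 Human PBMC were recovered overnight, treated 3 h with compound, then stimulated for 10 min with 10 ng/mL IL-6 (pSTAT3) or 1 ng/mL IL-4 (pSTAT6). Lysates were read by MSD sandwich immunoassay, with total STAT capture and pY705-STAT3 or pY641-STAT6 detection. Signal minus unstimulated wells was normalized to DMSO, and IC50 came from a variable-slope fit.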

STAT6 = target: T2, STAT6 (Homo sapiens, UniProt P42226); experiment: STAT6 Fluorescence Polarization (FP) Assay; format: binding
T2 construct: Recombinant STAT6 protein (STAT6(W123-T658))
T2 sequence (P42226 123-658): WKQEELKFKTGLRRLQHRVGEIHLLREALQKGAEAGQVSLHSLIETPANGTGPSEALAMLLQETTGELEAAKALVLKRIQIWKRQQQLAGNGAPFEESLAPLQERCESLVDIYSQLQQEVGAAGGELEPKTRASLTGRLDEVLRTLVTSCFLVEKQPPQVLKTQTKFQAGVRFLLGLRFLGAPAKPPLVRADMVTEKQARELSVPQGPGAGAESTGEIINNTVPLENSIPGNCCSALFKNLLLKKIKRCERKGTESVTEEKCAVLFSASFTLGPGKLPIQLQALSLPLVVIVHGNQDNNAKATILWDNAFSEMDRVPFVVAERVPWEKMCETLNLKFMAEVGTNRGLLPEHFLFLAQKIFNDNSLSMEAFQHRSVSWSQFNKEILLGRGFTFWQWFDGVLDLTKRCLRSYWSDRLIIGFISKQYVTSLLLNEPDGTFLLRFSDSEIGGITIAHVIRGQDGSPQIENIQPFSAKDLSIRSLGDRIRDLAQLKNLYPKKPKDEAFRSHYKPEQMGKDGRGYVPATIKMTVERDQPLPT
How it was run: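 STAT6(W123-T658) at 250 nM plus 2 nM 5-FAM phosphotyrosine peptide probe in HEPES pH 7.4 buffer with 2 mM DTT, 1% DMSO final. Polarization read after 45 min at room temperature. IC50 from nonlinear regression of mP against log concentration.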

STAT3 = target: T3, STAT3 (Homo sapiens, UniProt P40763); experiment: STAT3 Fluorescence Polarization (FP) Assay; format: binding
T3 construct: Recombinant STAT3 protein (STAT3(G127-1722))

pSTAT3 = target: T4, pSTAT3 (Homo sapiens, UniProt P40763); experiment: MSD-pSTAT-PBMC Assay, pSTAT3 (IL-6 stimulated PBMC); format: cell-based
T4 construct: pY705-STAT3 MSD read-out
Description: Cryopreserved Peripheral Blood Mononuclear Cells (PBMC) are from AllCells. Recombinant Human IL-4 and IL-6 are from Peprotech. Mouse monoclonal anti-STAT3 antibody, rabbit monoclonal anti-pY705-STAT3 antibody, rabbit monoclonal Anti-pY641-STAT6 antibody, and lysis buffer are from Cell Signaling Technology (CST). Mouse monoclonal anti-STAT6 antibody is from BioLegend. Assay plates, blocker, and anti-rabbit secondary antibody are from Meso Scale Discovery (MSD).
Cryopreserved PBMCs were thawed out and allowed to recover overnight in IMDM+10% heat-inactivated FBS prior to plating 50,000 (STAT3) or 25,000 (STAT6) cells per well in 96-well U-bottom tissue culture plates. Cells were treated with compound for 3 hrs. then stimulated with 10 ng/mL IL-6 (STAT3) or 1 ng/mL IL-4 (STAT6) for 10 min. Cells were then spun down and washed with ice-cold PBS prior to lysing the cell pellet with 1× lysis buffer (CST) with 1×HALT protease and phosphatase inhibitor cocktail (Thermo). Lysates were transferred to and incubated overnight at 4° C. with shaking in QuickPlex 96-well high bind assay plates (MSD) pre-coated overnight with 30 μL per well of 0.6 μg/mL mouse monoclonal anti-STAT3 antibody (STAT3) or 2 μg/mL mouse monoclonal anti-STAT6 antibody (STAT6) in 1×PBS, and pre-blocked for 1 hour with 3% Blocker-A (MSD). Captured protein in the assay plates were then washed and probed with 25 μL per well of 0.25 μg/ml rabbit monoclonal anti-pY705-STAT3 antibody (STAT3) or 0.18 μg/ml rabbit monoclonal Anti-pY641-STAT6 antibody (STAT6) in 1% Blocker-A for 1 hour at room temperature with shaking, then washed and probed with 25 ul per well of 1 ug/ml Sulfo-TAG Labeled Goat Anti-Rabbit Antibody (MSD) in 1% Blocker-A for 1 hour at room temperature with shaking. Assay plates were then washed and 150 μL of 1× Read Buffer-T (MSD) was added to each well prior to reading on an SQ120 MSD Plate Reader. Assay signal from each sample was subtracted by the signal from unstimulated control wells and normalized to DMSO control wells. IC50 values were calculated using Graph Pad Prism Dose-Response Nonlinear Regression with variable slope. For both pSTAT3 and pSTAT6 A=≤100 nM; B=>100-1000 nM; C=>1000-3000 nM; and D=>3 μM.

[1] = read-out: pSTAT6 IC50, compound 3 hrs, then 1 ng/mL IL-4 for 10 min, pY641-STAT6
[2] = read-out: pSTAT3 IC50, compound 3 hrs, then 10 ng/mL IL-6 for 10 min, pY705-STAT3
[3] = compound 3 hrs, then 1 ng/mL IL-4 for 10 min, pY641-STAT6, read-out: pSTAT6 IC50
[4] = recombinant STAT6(W123-T658) 250 nM, probe 5-FAM-Ap[…]-NH2 2 nM, 45 min, room temperature, read-out: STAT6 FP IC50
[5] = recombinant STAT3 25 nM, probe 5-FAM-GpYLPQTV-NH2 2 nM, 45 min, room temperature, read-out: STAT3 FP IC50
[6] = compound 3 hrs, then 10 ng/mL IL-6 for 10 min, pY705-STAT3, read-out: pSTAT3 IC50

T4 sequence (P40763 whole entry): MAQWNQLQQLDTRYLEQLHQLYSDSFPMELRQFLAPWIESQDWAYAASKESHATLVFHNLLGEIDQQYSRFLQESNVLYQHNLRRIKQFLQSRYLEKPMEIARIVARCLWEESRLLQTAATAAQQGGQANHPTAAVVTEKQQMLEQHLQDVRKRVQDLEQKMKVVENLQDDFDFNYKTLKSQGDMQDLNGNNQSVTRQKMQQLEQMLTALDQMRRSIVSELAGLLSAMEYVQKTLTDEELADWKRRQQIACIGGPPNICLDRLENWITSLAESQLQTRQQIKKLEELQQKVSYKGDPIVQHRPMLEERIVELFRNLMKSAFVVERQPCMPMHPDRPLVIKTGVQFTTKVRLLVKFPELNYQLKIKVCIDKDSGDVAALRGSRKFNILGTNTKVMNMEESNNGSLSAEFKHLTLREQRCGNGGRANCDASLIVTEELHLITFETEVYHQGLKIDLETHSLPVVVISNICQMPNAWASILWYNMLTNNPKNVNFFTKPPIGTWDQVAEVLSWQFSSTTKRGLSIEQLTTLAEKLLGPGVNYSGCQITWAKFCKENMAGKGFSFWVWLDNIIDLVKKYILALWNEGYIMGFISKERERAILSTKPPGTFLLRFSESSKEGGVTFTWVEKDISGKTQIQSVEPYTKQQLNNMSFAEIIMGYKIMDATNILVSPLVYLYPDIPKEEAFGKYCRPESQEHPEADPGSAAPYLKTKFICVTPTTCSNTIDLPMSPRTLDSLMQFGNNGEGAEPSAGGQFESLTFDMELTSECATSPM
T3 sequence (P40763 127-722 limits assumed): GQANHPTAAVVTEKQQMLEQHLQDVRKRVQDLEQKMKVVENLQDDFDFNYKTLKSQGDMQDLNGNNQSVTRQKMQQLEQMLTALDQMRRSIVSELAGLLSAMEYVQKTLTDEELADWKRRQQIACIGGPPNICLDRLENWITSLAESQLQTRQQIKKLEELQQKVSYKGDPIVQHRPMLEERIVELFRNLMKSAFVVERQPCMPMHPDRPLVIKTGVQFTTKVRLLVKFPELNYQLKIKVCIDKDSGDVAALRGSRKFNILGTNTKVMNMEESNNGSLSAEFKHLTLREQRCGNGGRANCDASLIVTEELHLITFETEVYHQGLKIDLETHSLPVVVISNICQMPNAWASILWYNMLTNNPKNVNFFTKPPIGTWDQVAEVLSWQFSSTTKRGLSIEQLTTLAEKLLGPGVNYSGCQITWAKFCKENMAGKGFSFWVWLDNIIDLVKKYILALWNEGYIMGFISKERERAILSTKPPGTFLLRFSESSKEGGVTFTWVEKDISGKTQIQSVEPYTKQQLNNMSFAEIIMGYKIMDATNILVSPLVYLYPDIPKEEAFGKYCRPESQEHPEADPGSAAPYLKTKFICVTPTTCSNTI

Row | Compound | IC50 (pSTAT6; [1]) [µM] | IC50 (STAT6) [µM] | IC50 (STAT3) [nM] | IC50 (pSTAT3; [2]) [µM] | IC50 (pSTAT6; [3]) [µM] | IC50 (STAT6; [4]) [µM] | IC50 (STAT3; [5]) [nM] | IC50 (pSTAT3; [6]) [µM]
1 | CN(C(=O)[C@@H]1CC[C@@H]2CCN(C(=O)CCCCCC#Cc3cccc4c3CN(C3CCC(=O)NC3=O)C4=O)C[C@H](NC(=O)c3cc4cc(C(F)(F)P(=O)(O)O)ccc4[nH]3)C(=O)N21)c1ccccc1 (stereo partly drawn) [Compound 1, [(2-{[(5S,8S,10aR)-3-{8-[2-(2,6-dioxopiperidin-3-yl)-1-oxo-2,3-dihydro-1H-isoindol-4-yl]oct-7-ynoyl}-8-[methyl(phenyl)carbamoyl]-6-oxo-decahydropyrrolo[1,2-a][1,5]diazocin-5-yl]carbamoyl}-1H-indol-5-yl)difluoromethyl]phosphonic acid] | > 3 | 0.3 to 3 | 1000 to 10000 | > 3 | – | – | – | –
2 | CC(=O)N1CC[C@H]2CC[C@@H](C(=O)Nc3ccc(-c4ccc(NC(=O)CCCCCC#Cc5cccc6c5CN(C5CCC(=O)NC5=O)C6=O)cc4)cc3)N2C(=O)[C@@H](NC(=O)c2cc3cc(C(F)(F)P(=O)(O)O)ccc3[nH]2)C1 (stereo partly drawn) [Compound 3, ((2-(((5S,8S,10aR)-3-acetyl-8-((4′-(8-(2-(2,6-dioxopiperidin-3-yl)-1-oxoisoindolin-4-yl)oct-7-ynamido)-[1,1′-biphenyl]-4-yl)carbamoyl)-6-oxodecahydropyrrolo[1,2-a][1,5]diazocin-5-yl)carbamoyl)-1H-indol-5-yl)difluoromethyl)phosphonic acid] | > 3 | 0.3 to 3 | 100 to 1000 | > 3 | – | – | – | –
3 | O=C1CCC(N2Cc3c(C#CCCCCCC(=O)N4CC[C@H]5CC[C@@H](C(=O)N6CC(c7cccnc7)C6)N5C(=O)[C@@H](NC(=O)c5cc6cc(C(F)(F)P(=O)(O)O)ccc6s5)C4)cccc3C2=O)C(=O)N1 (stereo partly drawn) [Compound 5, ((2-(((5S,8S,10aR)-3-(8-(2-(2,6-dioxopiperidin-3-yl)-1-oxoisoindolin-4-yl)oct-7-ynoyl)-6-oxo-8-(3-(pyridin-3-yl)azetidine-1-carbonyl)decahydropyrrolo[1,2-a][1,5]diazocin-5-yl)carbamoyl)benzo[b]thiophen-5-yl)difluoromethyl)phosphonic acid] | – | – | – | – | > 3 | 3 to 30 | < 100 | > 3
4 | N#CC1CN(C(=O)C2CCC3CCN(C(=O)CCCCCC#Cc4cccc5c4CN(C4CCC(=O)NC4=O)C5=O)CC(NC(=O)c4cc5cc(C(F)(F)P(=O)(O)O)ccc5s4)C(=O)N32)CC1c1ccccc1 [Compound 6, ((2-(((5S,8S,10aR)-8-((rel-3S,4R)-3-cyano-4-phenylpyrrolidine-1-carbonyl)-3-(8-(2-(2,6-dioxopiperidin-3-yl)-1-oxoisoindolin-4-yl)oct-7-ynoyl)-6-oxodecahydropyrrolo[1,2-a][1,5]diazocin-5-yl)carbamoyl)benzo[b]thiophen-5-yl)difluoromethyl)phosphonic acid] | – | – | – | – | 1 to 3 | < 0.3 | 1000 to 10000 | > 3
5 | Cc1ccc2[nH]nc(C(=O)N3CC[C@H]4CC[C@@H](C(=O)NCCCCCCCCC(=O)N[C@H](C(=O)N5C[C@H](O)C[C@H]5C(=O)N[C@@H](C)c5ccc(-c6scnc6C)cc5)C(C)(C)C)N4C(=O)[C@@H](NC(=O)c4ccc5ccc(C(F)(F)P(=O)(O)O)cc5c4)C3)c2c1 [Compound 7] | > 3 | < 0.3 | 1000 to 10000 | > 3 | – | – | – | –
6 | Cc1ccc2onc(C(=O)N3CC[C@H]4CC[C@@H](C(=O)N(C)CCCCCCC#Cc5cccc6c5CN(C5CCC(=O)NC5=O)C6=O)N4C(=O)[C@@H](NC(=O)c4ccc5ccc(C(F)(F)P(=O)(OCCSC(=O)CC(C)C)OCCSC(=O)CC(C)C)cc5c4)C3)c2c1 (stereo partly drawn) [Compound 21, S,S′-(((((7-(((5S,8S,10aR)-8-((8-(2-(2,6-dioxopiperidin-3-yl)-1-oxoisoindolin-4-yl)oct-7-yn-1-yl)(methyl)carbamoyl)-3-(5-methylbenzo[d]isoxazole-3-carbonyl)-6-oxodecahydropyrrolo[1,2-a][1,5]diazocin-5-yl)carbamoyl)naphthalen-2-yl)difluoromethyl)phosphoryl)bis(oxy))bis(ethane-2,1-diyl)) bis(3-methylbutanethioate)] | – | – | – | – | < 0.1 | – | – | > 3
7 | CN(C)c1ccncc1C1CN(C(=O)[C@@H]2CC[C@@H]3CCN(C(=O)CCCCCC#Cc4cccc5c4CN(C4CCC(=O)NC4=O)C5=O)C[C@H](NC(=O)c4cc5cc(C(F)(F)P(=O)(O)O)ccc5s4)C(=O)N32)C1 (stereo partly drawn) [Compound 39, ((2-(((5S,8S,10aR)-8-(3-(4-(dimethylamino)pyridin-3-yl)azetidine-1-carbonyl)-3-(8-(2-(2,6-dioxopiperidin-3-yl)-1-oxoisoindolin-4-yl)oct-7-ynoyl)-6-oxodecahydropyrrolo[1,2-a][1,5]diazocin-5-yl)carbamoyl)benzo[b]thiophen-5-yl)difluoromethyl)phosphonic acid] | – | – | – | – | – | 3 to 30 | < 100 | 0.1 to 1

From patent US20260308186A1, “STAT DEGRADERS AND USES THEREOF” (Recludix Pharma, Inc., priority 2023, published 2026)
